This is an account of results in US20260015359A1, “2-(1,8-DIETHYL-1,3,4,9-TETRAHYDROPYRANO[3,4-B]INDOL-1-YL)-1-(PIPERIDIN-1-YL)ETHAN-1-ONE ETODOLAC DERIVATIVE AS EUKARYOTIC ELONGATION FACTOR 2 KINASE (EEF2K) INHIBITOR FOR TARGETED CANCER THERAPY” (BAHCESEHIR UNIVERSITESI, priority 2023, published 2026).

Assay [1] addresses T1, eEF2K (Homo sapiens, UniProt O00418).
T1 sequence (O00418 1-725): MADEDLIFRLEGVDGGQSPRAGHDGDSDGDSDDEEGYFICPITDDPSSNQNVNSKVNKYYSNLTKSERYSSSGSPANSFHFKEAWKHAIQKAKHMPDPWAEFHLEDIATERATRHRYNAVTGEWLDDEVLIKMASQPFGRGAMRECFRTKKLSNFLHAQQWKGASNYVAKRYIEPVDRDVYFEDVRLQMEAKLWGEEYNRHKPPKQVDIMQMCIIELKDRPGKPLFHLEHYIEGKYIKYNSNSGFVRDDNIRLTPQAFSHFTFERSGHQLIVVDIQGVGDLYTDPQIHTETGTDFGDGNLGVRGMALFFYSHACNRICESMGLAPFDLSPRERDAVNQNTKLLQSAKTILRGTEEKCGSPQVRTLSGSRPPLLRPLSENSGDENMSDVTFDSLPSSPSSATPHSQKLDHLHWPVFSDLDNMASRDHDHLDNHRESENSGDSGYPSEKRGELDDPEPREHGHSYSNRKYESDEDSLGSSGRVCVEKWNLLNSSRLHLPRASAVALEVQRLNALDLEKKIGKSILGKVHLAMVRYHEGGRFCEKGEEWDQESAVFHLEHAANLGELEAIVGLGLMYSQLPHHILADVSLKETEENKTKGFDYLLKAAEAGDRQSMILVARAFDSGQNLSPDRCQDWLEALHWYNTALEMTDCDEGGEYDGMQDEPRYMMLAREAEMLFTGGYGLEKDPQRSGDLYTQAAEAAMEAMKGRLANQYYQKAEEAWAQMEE
Particulars: literature; cited from earlier work.

The subject of another assay is cancer cells. The settings on record: literature; cited from earlier work.
Assay [2] deals with T1, eEF2K. Nature of the assay: Western blot analysis of eEF2K activity (p-EF2 Thr56) in MDA-MB-231 cells. The assay is classed as cell-based. Particulars: for eEF2K inhibition potential: western blot, 2.5 to 20 micromolar. Here is the method:
MeOH: distilled water by volume (%) (70:30) was used as the mobile phase for HPLC analysis for the inventive compound and the flow rate was set to 1 mL min^−1. Triple negative breast cancer (TNBC) cell lines (ER-, PR- and HER2-) MDA-MB-231 cells were purchased from the American Type Culture Collection (ATCC) (Manassas, VA, USA). MDA-MB-231 cells were cultured in Dulbecco's modified Eagle's medium (DMEM)/F12 supplemented with 10% FBS (Fetal Bovine Serum) and 100 U mL^−1 penicillin and streptomycin. Specific antibodies (p-EF2 (Thr56) (2331S), eEF2 (2332S), eEF2K (3692S) and GAPDH (5174S)) were purchased from Cell Signaling Technology (CST).
Western blot analysis was carried out according to previously reported studies to evaluate the eEF2K inhibition activity for the synthesized compounds. The synthesized compound was applied to MDA-MB-231 cells in the range of various concentrations from 2.5 to 20 micromolar for 2 h treatment. The expression levels of p-EF2 (Thr56) inhibition and eEF2K activity were determined by using related antibodies such as p-EF2 (Thr56), eEF2 and eEF2K. Glyceraldehyde 3-phosphate dehydrogenase (GAPDH) was used as a loading control.
To determine the effects of the synthesized compounds in inhibiting eEF2K activity in TNBC, MDA-MB-231 cells, we performed western blot analysis at concentrations ranging from 2.5 micromolar to 20 micromolar in a dose-dependent manner. eEF2K inhibition was detected by decreased phosphorylation levels of EF2 (p-EF2-Thr-56), a direct downstream substrate of the enzyme.
For orientation: In western blotting, separated proteins are transferred to a membrane and probed.

As to `Cc1cc(C=C2C(=O)C=CC2=O)cc(C)c1O` [TX1918], at eEF2K [1], the “concentration reported to inhibit eEF2K” value is 10 µM and the “eEF2K inhibition (reported)” value is on record as “did not show significant eEF2K inhibition”.

On to `CCn1c(=O)c2cc(C(N)=O)c(N)nc2n(C2CC2)c1=O` [A484954], for which, in the assay on cancer cells, the “dose showing inhibition effect in cancer cells” value was 75 µM.

As for `CCc1cccc2c3c([nH]c12)C(CC)(CC(=O)N1CCCCC1)OCC3` (centres unmarked) [Inventive compound, 2-(1,8-diethyl-1,3,4,9-tetrahydropyrano [3,4-b]indol-1-yl)-1-(piperidin-1-yl) ethan-1-one], at eEF2K [2] (2.5 micromolar, compared to etodolac (EC)), the “eEF2K inhibition (reduced levels of p-EF2)” value is given as “marked inhibition”. Further, the “inhibition of phospho-eEF2 (Thr56)” value on eEF2K [2] (20 micromolar, 2 hours treatment) was “highest inhibition”. On eEF2K [2], the eEF2K inhibition potential entry is reported as “high inhibition potential”.

Turning to `CCCCCCCCCCCCCCCCn1cc[n+](Cc2ccccc2)c1C.[I-]` [NH125], the “eEF2K inhibition (reported)” value at eEF2K [1] is “does not inhibit EF2K”.

Regarding `CCc1cccc2c3c([nH]c12)C(CC)(CC(=O)O)OCC3` (racemic) [Etodolac, (R,S)-2-[1,8-diethyl-1,3,4-tetrahydropyrano [3,4-b]indol-1-yl]acetic acid], the eEF2K inhibition potential result at eEF2K [2] was “did not show any inhibition potential”.
